Results taken from patent publication US4847241A, “Fluorenyl substituted tyrosyl dipeptide amides which are useful in treating pain” (priority 1988, dated 1989).

Legend:
Writhing Mouse = assay: Writhing Assay (phenylbenzoquinone); type: in vivo, mice; conditions: 30 min before phenylbenzoquinone i.p., Active refers to the effect of the screening dose; for Writhing Mouse, Oral: screening dose 10 mg/kg p.o. (intragastric); for Writhing Mouse, Subc.: screening dose 10 mg/kg s.c.
Experimental: Male Charles River albino mice (CD-1/HAM/1LR) weighing between 20 and 30 grams were used. Thirty minutes after subcutaneous or intragastric administration of the test compound (0.1 mg/10 gram body weight), 0.025% (w/v) phenylbenzoquinone was injected intraperitoneally (0.1 ml/10 gram body weight). Five minutes later, each mouse was placed in a large glass beaker and the number of writhes that occurred in the subsequent ten minutes is counted. A writhe consisted of dorsoflexion of the back, extension of the hindlimbs, and strong contraction of the abdominal musculature. The test compound was considered to have produced analgesia in a mouse if the number of writhes elicited by phenylbenzoquinone was equal to or less than one-half the median number of writhes recorded for the saline-treated group that day. The results were expressed as the number of mice (out of a possible ten) in which the test compound produced analgesia.

[1] = system: opiate receptors isolated from rat brain; type: binding; conditions: 1 nM 3H-Naloxone, rat brain receptor membranes, screening concentration 10^-5 molar
rat = conditions: injected directly into the brain of the rat; cited from earlier work

Compound | Writhing Mouse, Oral (Writhing Mouse) | Writhing Mouse, Subc. (Writhing Mouse) | Opiate Binding, IC50 [1] | IC50 ([1]; read-out: Opiate Binding, IC50) [nM] | analgesic activity (rat)
2,6-dimethyltyrosyl-N-(2,3-dihydro-1H-inden-2-yl)-D-alaninamide, monohydrochloride [Example 24] | Inactive | Lethal | – | – | –
2,6-dimethyltyrosyl-N-(6-methoxy-6-oxohexyl)-D-alaninamide, monohydrochloride [Example 5] | Inactive | Inactive | – | – | –
2,6-dimethyltyrosyl-N-(6-methoxy-6-oxohexyl)-D-alaninamide, monohydrochloride [Example 7] | Inactive | Inactive | – | – | –
2,6-dimethyltyrosyl-N-[3-(2-thienyl)-2E-propenyl]-D-alaninamide, monohydrochloride [Example 52] | Inactive | Active | – | – | –
2,6-dimethyltyrosyl-N-[3-(2-thienyl)propyl]-D-alaninamide, monohydrochloride [Example 47] | Active | Active | – | – | –
2,6-dimethyltyrosyl-N-[3-(3-thienyl)-2E-propenyl]-D-alaninamide, monohydrochloride [Example 58] | Inactive | Active | – | – | –
2-(2R-amino-1-oxopropyl)-1,2,3,4-tetrahydroisoquinoline, monohydrochloride [Example 32] | Active | Inactive | Inactive | – | –
Cc1cc(O)cc(C)c1CC(NC(=O)OC(C)(C)C)C(=O)N[C@H](C)C(=O)NCCSc1ccccc1 (mixture of isomers) [Example 108, N-[(1,1-dimethylethoxy)carbonyl]-2,6-dimethyl-DL-tyrosyl-N-[2-(phenylthio)ethyl]-D-alaninamide] | Inactive | Active | – | – | –
Cc1cc(O)cc(C)c1CC(NC(=O)OC(C)(C)C)C(=O)N[C@H](C)C(=O)NCCOc1ccccc1 (mixture of isomers) [Example 115, N-[(1,1-dimethylethoxy)carbonyl]02,6-dimethyl-DL-tyrosyl-N-(2-phenoxyethyl)-D-alaninamide] | Active | Active | – | – | –
Cc1cc(O)cc(C)c1C[C@H](N)C(=O)N[C@@H](C)C(=O)N1CCCc2ccccc21.Cl (relative stereo) [Example 29, αS-R*-amino-4-hydroxy-2,6-dimethyl-N-[1S*-methyl-2-oxo-2-(1,2,3,4-tetrahydro-1-quinolinyl)ethyl]benzenepropanamide, monohydrochloride] | Inactive | Inactive | – | – | –
Cc1cc(O)cc(C)c1C[C@H](N)C(=O)N[C@H](C)C(=O)N1CCc2ccccc2C1.Cl (single isomer, unassigned) [Example 35, α-amino-4-hydroxy-2,6-dimethyl-N-[1R-methyl-2-oxo-2-(1,2,3,4-tetrahydro-2-isoquinolinyl)ethyl]benzenepropanamide, monohydrochloride, isomer S] | Active | Active | – | – | –
Cc1cc(O)cc(C)c1C[C@H](N)C(=O)N[C@H](C)C(=O)NCCCc1cccs1.Cl (single isomer, unassigned) [Example 46, 2,6-dimethyltyrosyl-N-[3-(2-thienyl)propyl]-D-alaninamide, monohydrochloride DF isomer] | Inactive | Inactive | – | 220 | –
C[C@@H](NC(=O)OCc1ccccc1)C(=O)NC1Cc2ccccc2C1 [Example 20, phenylmethyl [2-[(2,3-dihydro-1H-inden-2-yl)amino]-1R-methyl-2-oxoethyl]carbamate] | Inactive | Active | Inactive | – | –
C[C@@H](N)C(=O)NC1Cc2ccccc2C1 [Example 21, 2R-amino-N-(2,3-dihydro-1H-inden-2-yl)propanamide] | Inactive | Active | Inactive | – | –
C[C@@H](NC(=O)OCc1ccccc1)C(=O)N1CCCc2ccccc21 [Example 25, phenylmethyl [1R-methyl-2-oxo-2-(1,2,3,4-tetrahydro-1-quinolinyl)ethyl]carbamate] | Inactive | Inactive | – | – | –
Cc1cc(O)cc(C)c1CC(N)C(=O)N[C@H](C)C(=O)N1CCCc2ccccc21.Cl (stereo partly drawn) [Example 30, α-amino-4-hydroxy-2,6-dimethyl-N-[1R-methyl-2-oxo-2-(1,2,3,4-tetrahydro-1-quinolinyl)ethyl]benezenepropanamide, monohydrochloride] | Inactive | Inactive | – | – | –
Cc1cc(O)cc(C)c1C[C@H](N)C(=O)N[C@H](C)C(=O)NCCc1cccs1.Cl [Example 39, 2,6-dimethyl-L-tyrosyl-N-[2-(2-thienyl)ethyl]-D-alainamide, monohydrochloride] | Inactive | Inactive | – | – | –
C[C@@H](N)C(=O)NCCCc1cccs1 [Example 44, 2R-amino-N-[3-(2-thienyl)propyl]propanamide] | Active | Active | Inactive | – | –
COc1ccc(CCCNC(=O)[C@@H](C)N)cc1 [Example 60, αR-amino-N-[3-(4-methoxyphenyl)propyl]propanamide] | Active | Active | – | – | –
Cc1cc(O)cc(C)c1C[C@H](N)C(=O)N[C@H](C)C(=O)NCCC(c1ccccc1)c1ccccc1.Cl [Example 73, 2,6-dimethyltyrosyl-N-(3,3-diphenylpropyl)-D-alaninamide, monohydrochloride] | Inactive | Active | – | – | –
Cc1cc(O)cc(C)c1C[C@H](N)C(=O)N[C@H](C)C(=O)NCCSc1ccccc1.Cl [Example 109, 2,6-dimethyltyrosyl-N-[2-(phenylthio)ethyl]-D-alaninamide, monohydrochloride] | Inactive | Active | – | – | –
methionine enkepthalin | – | – | – | – | weak, fleeting analgesic activity
α-amino-4-hydroxy-2,6-dimethyl-N-[1R-methyl-2-oxo-2-(1,2,3,4-tetrahydro-2-isoquinolinyl)ethyl]benzenepropanamide, monohydrochloride [Example 37] | Inactive | Inactive | – | – | –
